Entries after “also recorded” stand apart in the source; their conditions may differ.
The substances below were run on target microorganisms (assay: Screen of synthesized peptides for binding to target microorganisms (targeting peptides, Tables 2 and 3)). Conditions: microorganism(s) the targeting peptide was identified as binding to (Table 3).
Method: Once noted, these peptides were batch synthesized on a multiplex peptide synthesizer, yielding 5-10 mg of each peptide that could readily be screened for biological activity (e.g., binding activity and/or antimicrobial activity.
Other suitable targeting peptides include the peptides that have been identified as binding to particular target organisms as shown in Table 3 and/or Table 4.

| Substance | Target(s) |
| --- | --- |
| 1T-109 (VTTNVRQGAGS; synthetic novel tartgeting peptide IT-109) | A. naeslundiiS. epidermidis,; also recorded: S. gordonii,; also recorded: S. mitis, S. mutans, S. oralis,; also recorded: S. salivarious, S. sanguinis |
| 1T-169 (FARVRRLHQNRILTQPLTNLKYCLRQPIYSD; synthetic novel tartgeting peptide IT-169) | A. naeslundii, F. nucleatum,; also recorded: P. gingivalis; also recorded: S. epidermidis,; also recorded: S. gordonii, S. mitis, S. mutans,; also recorded: S. oralis, S. salivarious,; also recorded: S. sanguinis |
| 1T-73 (GWWEELLHETILSKFKITKALELPIQL; synthetic novel tartgeting peptide IT-73) | Streptococcus; also recorded: pneumoniae |
| 1T-92 (GQDEGQRRAGVGEGQGVDG; synthetic novel tartgeting peptide IT-92) | S. mitis, S. mutans |
| 1T-74 (DIDWGRKISCAAGVAYGAIDGCATTV; synthetic novel tartgeting peptide IT-74) | S. pneumoniae |
| 1T-53 (SDILAEMFEKGELQTLVKDAAAKANA; synthetic novel tartgeting peptide IT-53) | P. aeruginosa |
| 1T-45 (WTKPSFTDLRLGFEVTLYFANR; synthetic novel tartgeting peptide IT-45) | S. aureus; also recorded: S. epidermidis; also recorded: C. striatum; also recorded: P. aeruginosa |
| 1T-58 (CDDLHALERAGKLDALLSA; synthetic novel tartgeting peptide IT-58) | P. aeruginosa |
| 1T-120 (DVRDRVDLAGADLCAAHATR; synthetic novel tartgeting peptide IT-120) | A. naeslundii, F. nucleatum,; also recorded: P. gingivalis; also recorded: S. epidermidis,; also recorded: S. gordonii, S. mitis, S. mutans,; also recorded: S. oralis, S. salivarious,; also recorded: S. sanguinis |
| 1T-135 (FESLLPQATKKIVNNKGSKINKIF; synthetic novel tartgeting peptide IT-135) | A. naeslundii, P. gingivalis; also recorded: S. epidermidis,; also recorded: S. gordonii, S. mitis, S. mutans,; also recorded: S. oralis, S. salivarious,; also recorded: S. sanguinis |
| 1T-48 (KLQVHHGRATHTLLLQPPLCAPGTIR; synthetic novel tartgeting peptide IT-48) | S. aureus; also recorded: S. epidermidis; also recorded: C. jeikeium; also recorded: C. xerosis; also recorded: C. striatum; also recorded: P. aeruginosa |
| 1T-65 (HARAAVGVAELPRGAAVEVELIAAVRP; synthetic novel tartgeting peptide IT-65) | S. mutans; also recorded: S. aureus; also recorded: S. epidermidis; also recorded: C. jeikeium; also recorded: C. xerosis; also recorded: C. striatum; also recorded: P. aeruginosa |
| 1T-63 (EPLILKELVRNLFLFCYARALR; synthetic novel tartgeting peptide IT-63) | S. aureus; also recorded: S. epidermidis; also recorded: C. jeikeium; also recorded: C. xerosis; also recorded: C. striatum; also recorded: P. aeruginosa |
| 1T-104 (RAVAAHLQGRHHGHQVRRQRHGQR; synthetic novel tartgeting peptide IT-104) | S. mitis |
| 1T-75 (GVARGLQLGIKTRTQWGAATGAA; synthetic novel tartgeting peptide IT-75) | S. pneumoniae |
| 1T-121 (FAKETGFGIGGAQEGWWIIADIYGPNPF; synthetic novel tartgeting peptide IT-121) | S. gordonii, S. mitis, S. mutans,; also recorded: S. oralis, S. salivarious,; also recorded: S. sanguinis |
| 1T-103 (AQFYEAIITGYALGAGQRIGQL; synthetic novel tartgeting peptide IT-103) | A. naeslundii, F. nucleatum,; also recorded: P. gingivalis; also recorded: S. epidermidis,; also recorded: S. gordonii, S. mitis, S. mutans,; also recorded: S. oralis, S. sanguinis |
| 1T-84 (FRKKRYGLSILLWLNAFTNLVNSIHAFYMTLF; synthetic novel tartgeting peptide IT-84) | S. pneumoniae |
| 1T-116 (MILHRRRDR; synthetic novel tartgeting peptide IT-116) | A. naeslundii, P. gingivalis; also recorded: S. epidermidis,; also recorded: S. gordonii, S. mitis, S. mutans,; also recorded: S. oralis, S. salivarious,; also recorded: S. sanguinis |
| 1T-126 (QGLARPVLRRIPL; synthetic novel tartgeting peptide IT-126) | S. gordonii, S. mitis, S. mutans |
| 1T-165 (CYDSFDFSIFVTFANRMKLSVGS; synthetic novel tartgeting peptide IT-165) | A. naeslundii, F. nucleatum,; also recorded: P. gingivalis; also recorded: S. epidermidis,; also recorded: S. gordonii, S. mitis, S. mutans,; also recorded: S. oralis, S. salivarious,; also recorded: S. sanguinis |
| 1T-86 (HRKNPVLGVGRRHRAHNVA; synthetic novel tartgeting peptide IT-86) | S. mitis, S. oralis, S. salivarious |
| 1T-39 (FGFCVWMYQLLAGPPGPPA; synthetic novel tartgeting peptide IT-39) | S. mutans; also recorded: P. aeruginosa |
| 1T-106 (DALRRSRSQGRRHR; synthetic novel tartgeting peptide IT-106) | S. gordonii, S. mitis, S. mutans,; also recorded: S. oralis, S. salivarious |

| Substance | Target(s) |
| --- | --- |
| 1T-77 (EMRISRIILDFLFLRKK; synthetic novel tartgeting peptide IT-77) | S. pneumoniae |
| 1T-20 (PALVDLSNKEAVWAVLDDHS; synthetic novel tartgeting peptide IT-20) | S. mutans; also recorded: P. aeruginosa |
| 1T-57 (RLEYRRLETQVEENPESGRRPMRG; synthetic novel tartgeting peptide IT-57) | P. aeruginosa |
| 1T-166 (AQSAGQIKRKSKVRIHV; synthetic novel tartgeting peptide IT-166) | A. naeslundii, F. nucleatum,; also recorded: P. gingivalis; also recorded: S. epidermidis,; also recorded: S. gordonii, S. mitis, S. mutans,; also recorded: S. oralis, S. salivarious,; also recorded: S. sanguinis |
| 1T-68 (GGTKEIVYQRG; synthetic novel tartgeting peptide IT-68) | S. mutans; also recorded: S. aureus; also recorded: C. jeikeium; also recorded: C. xerosis; also recorded: C. striatum; also recorded: P. aeruginosa |
| 1T-44 (DPALADFAAGMRAQVRT; synthetic novel tartgeting peptide IT-44) | S. mutans; also recorded: S. aureus; also recorded: S. epidermidis; also recorded: C. jeikeium; also recorded: C. striatum; also recorded: P. aeruginosa |
| 1T-17 (NNAIVYIS; synthetic novel tartgeting peptide IT-17) | S. mutans |
| 1T-5 (LGPIAGAAIGWDLGAISGAGLGWANFCQ; synthetic novel tartgeting peptide IT-5) | S. mutans; also recorded: S. sanguinis |
| 1T-46 (FSFKQRVMFRKEVERLR; synthetic novel tartgeting peptide IT-46) | S. aureus; also recorded: S. epidermidis; also recorded: C. jeikeium; also recorded: C. xerosis; also recorded: C. striatum; also recorded: P. aeruginosa |
| 1T-125 (DAITGGNPPLSDTDGLRP; synthetic novel tartgeting peptide IT-125) | S. epidermidis, S. gordonii,; also recorded: S. mutans, S. oralis |
| 1T-122 (GAIPDPVTHRVDWEEDHQTRPSR; synthetic novel tartgeting peptide IT-122) | S. mitis |
| 1T-72 (EPTDGVACKER; synthetic novel tartgeting peptide IT-72) | P. aeruginosa |
| 1T-41 (KRGSKIVIAIAVVLIVLAGVWVW; synthetic novel tartgeting peptide IT-41) | S. mutans; also recorded: S. aureus; also recorded: S. epidermidis; also recorded: C. jeikeium; also recorded: C. striatum; also recorded: P. aeruginosa |
| 1T-147 (GVENRRFYERDVSKVSMMTSEAVAPRGGSK; synthetic novel tartgeting peptide IT-147) | A. naeslundii, F. nucleatum,; also recorded: P. gingivalis,; also recorded: T. denticolaS. gordonii,; also recorded: S. mitis, S. mutans, S. oralis,; also recorded: S. salivarious, S. sanguinis |
| 1T-118 (TASPPAPSDQGLRTAFPATLLIALAALARISR; synthetic novel tartgeting peptide IT-118) | A. naeslundii, F. nucleatum,; also recorded: P. gingivalis; also recorded: S. epidermidis,; also recorded: S. gordonii, S. mitis, S. mutans,; also recorded: S. oralis, S. salivarious,; also recorded: S. sanguinis |
| 1T-98 (VRSAKAVKALTAAGYTGELVNVSGGMKAWLGQ; synthetic novel tartgeting peptide IT-98) | A. naeslundii, F. nucleatum,; also recorded: P. gingivalis; also recorded: S. epidermidis,; also recorded: S. gordonii, S. mitis, S. mutans,; also recorded: S. oralis, S. salivarious,; also recorded: S. sanguinis |
| 1T-35 (EICLTLVFPIRGSYSEAAKFPVPIHIVEDGTVELPK; synthetic novel tartgeting peptide IT-35) | P. aeruginosa |
| 1T-49 (SLVRIHDQQPWVTRGAFIDAARTCS; synthetic novel tartgeting peptide IT-49) | S. aureus; also recorded: S. epidermidis; also recorded: C. jeikeium; also recorded: P. aeruginosa |
| 1T-114 (RQAPGPGLVTITAACSAPGSRSR; synthetic novel tartgeting peptide IT-114) | A. naeslundii, P. gingivalis; also recorded: S. epidermidis,; also recorded: S. gordonii, S. mitis, S. mutans,; also recorded: S. oralis, S. sanguinis |
| 1T-94 (DQVAHSGDMLVQARRRDS; synthetic novel tartgeting peptide IT-94) | S. mitis, S. mutans, S. oralis |
| 1T-99 (MKAWLGQ; synthetic novel tartgeting peptide IT-99) | S. gordonii, S. mitis, S. mutans,; also recorded: S. oralis, S. sanguinis |
| 1T-1 (YVNYNQSFNSGW; synthetic novel tartgeting peptide IT-1) | S. mutans |
| 1T-19 (PGAFRNPQMPRG; synthetic novel tartgeting peptide IT-19) | S. aureus; also recorded: S. epidermidis; also recorded: P. aeruginosa |
